These results are taken from publication PMC9574867, “Discovery and Characterization of Synthesized and FDA-Approved Inhibitors of Clostridial and Bacillary Collagenases” (Journal of Medicinal Chemistry, 2022).

Assay [1] addresses ColQ1-CU (Bacillus cereus, UniProt B9J3S4). In words: biochemical. On the set-up: species or system B. cereus strain Q1.
The subject of assay [2] is B. cereus collagenases released in the NHDF infection model. In kind it is cell-based, B. cereus AH187.
Assay [3] concerns the target ColQ1-FL (Bacillus cereus, UniProt B9J3S4). The format is biochemical. As to conditions: 12.5–1.5 μM tested, SDS-PAGE.
Assay [4] relates to B. cereus AH187. In words: B. cereus growth inhibition assay. The format is cell-based. The settings on record: Bacillus cereus, AH187; BHI medium, 37 °C, 48 h, 200–3 μM; read-out: MIC50 (µM) AH187.
Assay [5] concerns NHDF cells infected with B. cereus. Description: NHDF infection model, cell morphology/attachment and fibrillar collagen (picrosirius red). In kind it is cell-based, human. The settings on record: B. cereus infection, 5 h.

Converted amounts (≈) assume the structure as drawn. “Also recorded” adds a separate entry of the source. Where only a bound is given, the exact number is not on record here.

ColQ1-CU, sequence (B9J3S4 94-765 limits assumed): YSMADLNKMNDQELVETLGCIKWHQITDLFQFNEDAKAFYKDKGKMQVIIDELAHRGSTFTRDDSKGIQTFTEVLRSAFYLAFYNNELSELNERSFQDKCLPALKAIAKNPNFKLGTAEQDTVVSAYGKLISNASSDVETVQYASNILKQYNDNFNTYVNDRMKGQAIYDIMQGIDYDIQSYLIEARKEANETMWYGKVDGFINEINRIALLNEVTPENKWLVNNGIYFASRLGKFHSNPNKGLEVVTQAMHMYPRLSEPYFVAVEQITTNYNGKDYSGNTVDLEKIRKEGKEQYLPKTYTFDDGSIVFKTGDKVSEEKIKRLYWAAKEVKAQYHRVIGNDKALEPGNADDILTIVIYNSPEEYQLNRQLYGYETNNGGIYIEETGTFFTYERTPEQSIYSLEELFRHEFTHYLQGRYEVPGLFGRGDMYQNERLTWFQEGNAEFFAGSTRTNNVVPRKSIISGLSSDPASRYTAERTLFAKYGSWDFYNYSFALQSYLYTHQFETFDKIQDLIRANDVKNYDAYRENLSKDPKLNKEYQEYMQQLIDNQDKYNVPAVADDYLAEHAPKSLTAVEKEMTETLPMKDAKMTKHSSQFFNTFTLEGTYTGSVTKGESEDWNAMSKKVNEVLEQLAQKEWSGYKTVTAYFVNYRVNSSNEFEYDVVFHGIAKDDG
ColQ1-FL, sequence (B9J3S4 94-965 limits assumed): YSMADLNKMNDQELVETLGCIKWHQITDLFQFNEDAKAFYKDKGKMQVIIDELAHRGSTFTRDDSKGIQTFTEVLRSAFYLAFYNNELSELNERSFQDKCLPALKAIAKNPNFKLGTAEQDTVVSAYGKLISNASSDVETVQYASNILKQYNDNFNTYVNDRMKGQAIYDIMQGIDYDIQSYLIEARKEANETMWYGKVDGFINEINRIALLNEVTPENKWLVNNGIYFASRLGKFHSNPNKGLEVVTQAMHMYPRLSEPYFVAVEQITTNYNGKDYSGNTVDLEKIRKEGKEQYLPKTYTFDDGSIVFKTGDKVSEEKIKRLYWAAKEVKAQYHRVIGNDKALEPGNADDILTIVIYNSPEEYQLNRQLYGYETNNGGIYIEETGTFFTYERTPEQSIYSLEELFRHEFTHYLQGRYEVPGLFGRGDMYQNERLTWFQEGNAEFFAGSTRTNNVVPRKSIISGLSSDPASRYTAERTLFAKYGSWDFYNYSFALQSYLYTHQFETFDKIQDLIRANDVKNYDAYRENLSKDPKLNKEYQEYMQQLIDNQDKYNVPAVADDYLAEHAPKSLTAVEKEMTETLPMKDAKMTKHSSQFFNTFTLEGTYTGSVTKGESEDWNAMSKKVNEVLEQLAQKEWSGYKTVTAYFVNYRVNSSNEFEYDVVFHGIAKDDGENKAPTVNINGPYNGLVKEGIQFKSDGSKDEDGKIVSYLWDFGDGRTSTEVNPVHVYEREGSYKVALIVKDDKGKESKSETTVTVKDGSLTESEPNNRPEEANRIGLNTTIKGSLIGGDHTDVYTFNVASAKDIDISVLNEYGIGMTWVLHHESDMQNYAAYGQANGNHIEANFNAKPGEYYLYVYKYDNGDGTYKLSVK

As a reminder, the inhibition is the percentage by which the read-out fell short of the control. Lower therefore signals a weak effect. `O=P(O)(O)C(Cl)(Cl)P(=O)(O)O` [Clodronate disodium, reference compound]: the inhibition at 100 µM in assay [1] was under 5%.

`O=P(O)(O)c1nc2ccccc2nc1P(=O)(O)O` [Compound 7, Quinoxaline-2,3-diylbis(phosphonic acid)] registered an inhibition at 100 µM in assay [1] of 40 ± 7%.

In the case of `CCOP(=O)(OCC)c1nc2ccccc2nc1P(=O)(OCC)OCC` [Compound 7c, Tetraethyl Quinoxaline-2,3-diylbis(phosphonate)], in assay [1], the inhibition at 100 µM is under 5%. Further, the “Inhibition (%)” value in assay [1] (100 μM) is given as 7c; O=P(OCC)(OCC)C2=NC1=CC=CC=C1N=C2P(OCC)(OCC)=O; 3 ± 2%.

For the compound `O=P(O)(O)c1nc2ccc(F)cc2nc1P(=O)(O)O` [Compound 8, (6-Fluoroquinoxaline-2,3-diyl)bis(phosphonic acid)], in assay [1] (100 μM), the “Inhibition (%)” value was 8; O=P(O)(O)C2=NC1=CC(F)=CC=C1N=C2P(O)(O)=O; 38 ± 3%.

For orientation: IC50 means the point on the concentration scale where inhibition reaches its midpoint. A lower IC50 goes with inhibition by little substance. In turn, `O=P(O)(O)c1nc2ccc(Cl)cc2nc1P(=O)(O)O` [Compound 9, (6-Chloroquinoxaline-2,3-diyl)bis(phosphonic acid)] registered an IC50 in assay [1] of 4 ± 0.6 µM.

What is called MIC50 is an inhibitory concentration at the 50% level, which refers to growth in some studies and to a panel of isolates in others. In the case of `Cc1ccc2nc(P(=O)(O)O)c(P(=O)(O)O)nc2c1` [Compound 11, (6-Methylquinoxaline-2,3-diyl)bis(phosphonic acid)], the “Inhibitory effect on gelatinolytic activity of secreted collagenases” value (“Inhibitory effect” below) in assay [2] is listed as “inhibited the collagenase activity toward gelatin only marginally at 100 μM”. Also, in assay [3], the “Protection of Col I chains from cleavage by ColQ1-FL” value (shortened to “Protection of Col I chains”) is given as “inhibited the collagenase activity at all concentrations tested”. Also, in assay [1], half-maximal inhibition (IC50) required 3.4 ± 0.1 µM and the inhibition at 100 µM stood at 58%. Further, in assay [4], the MIC50 amounted to 200 µM (≈ 60.8 µg/mL). Moreover, in assay [5], the “Effect on cell morphology and ECM collagen content of infected NHDF cells” value is on record as “smaller effect at all concentrations tested”.

In assay [1], `CCOP(=O)(OCC)c1nc2ccc(C)cc2nc1P(=O)(OCC)OCC` [Compound 11c, tetraethyl (6-methylquinoxaline-2,3-diyl)bis(phosphonate)] returned an inhibition at 100 µM of under 5%. In assay [1] (100 μM), the “Inhibition (%)” value was 11c; O=P(OCC)(OCC)C2=NC1=CC(C)=CC=C1N=C2P(OCC)(OCC)=O; 8 ± 4%.

In assay [1], `COc1ccc2nc(P(=O)(O)O)c(P(=O)(O)O)nc2c1` [Compound 12, (6-Methoxyquinoxaline-2,3-diyl)bis(phosphonic acid)] had an inhibition at 100 µM of 23 ± 6%.

As for `CCOP(=O)(OCC)c1nc2ccc(OC)cc2nc1P(=O)(OCC)OCC` [Compound 12c, tetraethyl (6-methoxyquinoxaline-2,3-diyl)bis(phosphonate)], in assay [1] (100 μM), the “% Inhibition” value is “n.i. (key: n.i.: no inhibition (percent inhibition < 5%))” and the “Inhibition (%)” value is on record as 12c; O=P(OCC)(OCC)C2=NC1=CC(OC)=CC=C1N=C2P(OCC)(OCC)=O; 0 ± 2%.

Turning to `O=c1[nH]c2cc(Cl)c(Cl)cc2nc1P(=O)(O)O` [Compound 16, (6,7-Dichloro-3-oxo-3,4-dihydroquinoxalin-2-yl)phosphonic Acid], the “Protection of Col I chains” value in assay [3] is on record as “severe degradation was visible at all tested concentrations”. This compound also had an inhibition at 100 µM in assay [1] of under 5%. For the same compound, in assay [1] (100 μM), the “Inhibition (%)” value is recorded as 16; O=P(O)(O)C2=NC1=CC(Cl)=C(Cl)C=C1NC2=O; 5 ± 2%.

On to `CC(=O)Nc1cccc(OCc2cn(CCNC(=O)C(CC(C)C)C(=O)NO)nn2)c1` (stereo not drawn) [Compound 28, N-[2-[4-[(3-Acetamidophenoxy)methyl]triazol-1-yl]ethyl]-2-(hydroxycarbamoyl)-4-methyl-pentanamide], for which the “Inhibitory effect” value in assay [2] is “no inhibitory effect on the collagenase in the zymography at all tested concentrations; also recorded: no inhibition of the collagenase in the gelatin zymography was detected”. In addition, in assay [3], the “Protection of Col I chains” value was “severe degradation was visible at all tested concentrations”. The compound also yielded a concentration for half-maximal inhibition (IC50) in assay [1] of 35 ± 1 µM. The “Effect on cell morphology and ECM collagen content of infected NHDF cells” value in assay [5] is listed as “neither able to rescue cell morphology nor able to maintain the collagen content of the ECM”.

Turning to `CC(=O)Nc1ccc(OCc2cn(CCNC(=O)C(CC(C)C)C(=O)NO)nn2)cc1` (stereo not drawn) [Compound 29, N-[2-[4-[(4-Acetamidophenoxy)methyl]triazol-1-yl]ethyl]-2-(hydroxycarbamoyl)-4-methyl-pentanamide], the “Inhibitory effect” value in assay [2] is on record as “no inhibitory effect on the collagenase in the zymography at all tested concentrations; also recorded: no inhibition of the collagenase in the gelatin zymography was detected”. Besides, the “Protection of Col I chains” value in assay [3] is on record as “severe degradation was visible at all tested concentrations”. This compound showed a concentration for half-maximal inhibition (IC50) in assay [1] of 35 ± 3 µM. In assay [5], the “Effect on cell morphology and ECM collagen content of infected NHDF cells” value is “neither able to rescue cell morphology nor able to maintain the collagen content of the ECM”.

In the case of `CC(C)CC(C(=O)NO)C(=O)NCCn1cc(COc2ccccc2F)nn1` (stereo not drawn) [Compound 30, N-[2-[4-[(2-Fluorophenoxy)methyl]triazol-1-yl]ethyl]-2-(hydroxycarbamoyl)-4-methyl-pentanamide], the “Inhibitory effect” value in assay [2] is given as “no inhibitory effect on the collagenase in the zymography at all tested concentrations”. In addition, in assay [1], 16.2 ± 0.8 µM corresponded to half-maximal inhibition (IC50) and 100 µM produced 92% inhibition.

Turning to `CC(C)CC(C(=O)NO)C(=O)NCCn1cc(COc2ccccc2)nn1` (stereo not drawn) [Compound 31, 2-(Hydroxycarbamoyl)-4-methyl-N-[2-[4-(phenoxymethyl)triazol-1-yl]ethyl]pentanamide], the “Inhibitory effect” value in assay [2] is listed as “no inhibitory effect on the collagenase in the zymography at all tested concentrations; also recorded: no inhibition of the collagenase in the gelatin zymography was detected”. Also, the “Protection of Col I chains” value in assay [3] was “severe degradation was visible at all tested concentrations”. Further, half-maximal inhibition in assay [1] (IC50) required 12 ± 1 µM. Moreover, the “Effect on cell morphology and ECM collagen content of infected NHDF cells” value in assay [5] is given as “neither able to rescue cell morphology nor able to maintain the collagen content of the ECM”.

`CC(C)CC(C(=O)NO)C(=O)NCCn1cc(CSc2ccccc2)nn1` (stereo not drawn) [Compound 32, 2-(Hydroxycarbamoyl)-4-methyl-N-[2-[4-(phenylsulfanylmethyl)triazol-1 yl]ethyl]pentanamide]: the “Inhibitory effect” value in assay [2] is recorded as “no inhibitory effect on the collagenase in the zymography at all tested concentrations; also recorded: no inhibition of the collagenase in the gelatin zymography was detected”. Also, the “Protection of Col I chains” value in assay [3] is “severe degradation was visible at all tested concentrations”. Moreover, inhibition in assay [1] was half-maximal at 10.1 ± 0.9 µM (IC50). The “Effect on cell morphology and ECM collagen content of infected NHDF cells” value in assay [5] is listed as “neither able to rescue cell morphology nor able to maintain the collagen content of the ECM”.

In turn, `CCCCCN(C)CCC(O)(P(=O)(O)O)P(=O)(O)O` [Ibandronate sodium, reference compound] returned an inhibition at 100 µM in assay [1] of under 5%.

In assay [1], `NCCCCCC(O)(P(=O)(O)O)P(=O)(O)O` [Neridronate, reference compound] yielded an inhibition at 100 µM of under 5%.

Compound `O=P(O)(O)C(O)(Cc1cccnc1)P(=O)(O)O` [Risedronate sodium, reference compound] gave an inhibition at 100 µM in assay [1] of under 5%.
